Data published in patent US8653056B2, “Method of preparation of a soluble formulation of water-insoluble pentacyclic and tetracyclic terpenoids, a soluble formulation of a pentacyclic or tetracyclic terpenoid and a pharmaceutical composition containing this soluble formulation” (Univerzita Karlova V Praze, Prirodovedecka Fakulta, priority 2006, dated 2014).

How the values were obtained:
[1] = Concentration of dissolved triterpenoid in the aqueous cyclodextrin solution (HPLC-ESI MS); format: physicochemical; details: 2-hydroxypropyl-γ-cyclodextrin, 50° C.
Method: (§1) Into the resulting colourless, viscous solution, soluble triterpene derivative (1.50 g) is added at once and the mixture is again vigorously stirred at the temperature of 50° C. […] After the triterpenoid is completely dissolved, the resulting clear solution is cooled to room temperature, filtered with a syringe filter (hydrophilic, pore size 0.22 μm) in order to be sterile and is placed in a refrigerator.
as §1, with “Method B: In a mixture of water (14.0 ml) and propylene glycol (6.0 ml), 2-hydroxypropyl-γ-cyklodextrin (7.00 g) is dissolved at the temperature of 50° C. under vigorous stirring. Into” for “Into”, “derivate (1.00” for “derivative (1.50”, “and” for “and the mixture”
Analytic Determination of the Concentration of Dissolved Triterpenoids in the Application Form and in Plasma Samples
(§2) HPLC-ESI MS technique was used or the determination of the concentration of dissolved triterpenoids. The samples were measured in one analytical batch with calibration solutions and blind control. The sample for the measurement was prepared from 50 μl of aqueous solution containing the inclusion compound by dilution with methanol to the volume of 10 ml. Subsequently, 10 μl of the sample solution after the first dilution is further diluted to 1 ml by the mobile phase. The blind control was obtained from 50 μl of pre-prepared aqueous solution of 2-hydroxypropyl-γ-cyklodextrin by dilution with methanol to 10 ml. Subsequently, 10 μl of the blind control solution after the first dilution is further diluted to 1 ml by methanol. Stock solutions of standards (concentration 0.2 mg/ml) were prepared by weighing 2.00 mg of analyte to 10 ml graduated flask and dissolution in methanol. The calibration samples were then prepared by dilution of the stock solution with mobile phase (0.4 μg/ml resp. 4 μg/ml).
The concentration was determined by comparison with standard and calculated to the original solution containing the inclusion compound.

[2] = Bioavailability and pharmacokinetic profile at oral administration to laboratory mice; format: in vivo, outbred mice CD-1; details: intragastric single dose 200 μl, soluble cyclodextrin formulation
Method: Determination of Bioavailability and Pharmacokinetic Profile at Oral Administration of the Compounds to Laboratory Mice
Soluble cyclodextrin formulations of terpenoid compounds, prepared in accordance with the aforementioned methods A or B, were administered without dilution to outbred mice CD-1 intragastrically (200 μl in a single dose) as aqueous solutions by injection syringe equipped with a gastric tube. Insoluble compounds were administered intragastrically as well (200 μl in a single dose), but in the form of aqueous suspensions in 0.5-1% carboxymethyl cellulose. In time intervals 2, 4, 6, 8, 12 and 24 h, blood was taken from the mice, the blood was centrifuged and the obtained plasma was subsequently analysed by HPLC-ESI MS technique.
as §2
The analysis was carried out at ODS Hypersil 125×2.1 mm, 5 um, SN 0745415X, Thermo EC column, ODS 4.0×3.0 mm precolumn, Phenomenex, mobile phase A—100 mmol/L aqueous solution of ammonium formate, pH is adjusted to 5 by formic acid, B—100 mmol/L methanolic solution of ammonium formate, column temperature: 25° C., linear gradient or isocratic elution, injected volume 30 μl. The concentration was determined by comparison with standard and calculated to the original solution containing the inclusion compound.

[3] = solution method A: water, saturated sodium hydrogencarbonate solution, ethanol

Compound	Conc. of dissolved substance [1, 3] [µg/mL]	oral availability [2]	Conc. of dissolved substance ([1]; solution method B: water, propylene glycol) [µg/mL]
CCOC(=O)[C@@]12CC[C@]3(C)[C@H](CC[C@@H]4[C@@]5(C)CC[C@H](O[C@@H]6O[C@H](CO)[C@@H](O)[C@H](O)[C@H]6O)C(C)(C)[C@@H]5CC[C@]43C)C1=C(C(C)C)C(=O)C2 [4i]		prove oral availability	56000
CC(C)C1=C2[C@H]3CC[C@@H]4[C@@]5(C)CC[C@H](OC(=O)CC(C)(C)C(=O)O)C(C)(C)[C@@H]5CC[C@@]4(C)[C@]3(C)CC[C@@]2(C(=O)O)CC1=O [4t]	49000	prove oral availability	

Next, values leading:

Conc. of dissolved substance [1, 3] [µg/mL]	oral availability [2]	Conc. of dissolved substance ([1]; solution method B: water, propylene glycol) [µg/mL]	Compound
55000	prove oral availability		C=C(C=O)[C@@H]1CC[C@]2(C(=O)OCC)CC[C@]3(C)[C@H](CC[C@@H]4[C@@]5(C)CC[C@H](OC(=O)CCC(=O)O)C(C)(C)[C@@H]5CC[C@]43C)[C@@H]12 [3b]
50000	prove oral availability		COC(=O)[C@@]12CC[C@]3(C)[C@H](CC[C@@H]4[C@@]5(C)CC[C@H](OC(=O)CCC(=O)O)C(C)(C)[C@@H]5CC[C@]43C)C1=C(C(C)C)C(=O)C2=O [5a]
56000	prove oral availability		C=C(C)[C@@H]1CC[C@]2(C(=O)OCC(=O)O)CC[C@]3(C)[C@H](CC[C@@H]4[C@@]5(C)Cc6nccnc6C(C)(C)[C@@H]5CC[C@]43C)[C@@H]12 [6a]
37000	prove oral availability		CC1(C)CCC23CCC4(C)C(CCC5C6(C)CC(NC(=O)CCC(=O)O)C(O)C(C)(C)C6CCC54C)C2C1OC3 (stereo not drawn) [8a]
